The text below walks through data of US11807644B2 (PMV Pharmaceuticals, Inc., priority 2020, dated 2023).

Each structure is given as a SMILES string.

In the assay the target is T1, recombinant His-tag Y220C p53 DBD protein (Homo sapiens, UniProt P04637, Y220C).
T1 construct: recombinant His-tag Y220C p53 DBD protein (amino acids #˜94-312)
Kind of assay: In vitro DNA binding activity assay (TR-FRET): binding of His-tag Y220C p53 DBD to biotin-labeled consensus DNA. It is filed as biochemical. The following applies: SC150 = concentration to increase DNA binding by […], His-tag Y220C p53 DBD, biotin-labeled consensus DNA.
`CN1CC[C@@H](F)[C@@H](Nc2cccc3c2cc(-c2noc(CNC(=O)c4ccn(C(C)(C)C)c4)n2)n3CC(F)(F)F)C1` [Compound 415B, 1-tert-butyl-N-{[3-(4-{[(3S,4R)-4-fluoro-1-methylpiperidin-3-yl]amino}-1-(2,2,2-trifluoroethyl)-1H-indol-2-yl)-1,2,4-oxadiazol-5-yl]methyl}-1H-pyrrole-3-carboxamide]: the “Y220C SC150 (μM)” value is listed as “* (* = 0 μM ≤ SC150 < 0.1 μM)”. For `C[C@H]1CN(C)CC[C@H]1Nc1cccc2c1cc(-c1noc(CNC(=O)c3ccc(C(C)(C)O)s3)n1)n2CC(F)(F)F` [Compound 509B, N-{[3-(4-{[(3S,4R)-1,3-dimethylpiperidin-4-yl]amino}-1-(2,2,2-trifluoroethyl)-1H-indol-2-yl)-1,2,4-oxadiazol-5-yl]methyl}-5-(2-hydroxypropan-2-yl)thiophene-2-carboxamide] the value was “* (* = 0 μM ≤ SC150 < 0.1 μM)”.

As for `COc1cc(S(C)(=O)=O)ccc1NCc1nnc(-c2cc3c(N[C@H]4CCN(C)C[C@@H]4F)cccc3n2CC(F)(F)F)o1` (racemic) [Compound 123B, (+/−)-N-[(3R,4R)-3-fluoro-1-methylpiperidin-4-yl]-2-(5-{[(4-methanesulfonyl-2-methoxyphenyl)amino]methyl}-1,3,4-oxadiazol-2-yl)-1-(2,2,2-trifluoroethyl)-1H-indol-4-amine], the “Y220C SC150 (μM)” value is on record as “** (** = 0.1 μM ≤ SC150 < 0.5 μM)”. With `CN1CCC(Nc2cccc3c2cc(-c2nc(CNC(=O)c4cnn(C)c4)no2)n3CC(F)(F)F)CC1` [Compound 140B, 1-methyl-N-[(5-{4-[(1-methylpiperidin-4-yl)amino]-1-(2,2,2-trifluoroethyl)-1H-indol-2-yl}-1,2,4-oxadiazol-3-yl)methyl]-1H-pyrazole-4-carboxamide], the “Y220C SC150 (μM)” value was “** (** = 0.1 μM ≤ SC150 < 0.5 μM)”. For `CN1CCC(Nc2cccc3c2cc(-c2nnc(CNC(=O)c4cccnc4)s2)n3CC(F)(F)F)CC1` [Compound 42B, N-[(5-{4-[(1-methylpiperidin-4-yl)amino]-1-(2,2,2-trifluoroethyl)-1H-indol-2-yl}-1,3,4-thiadiazol-2-yl)methyl]pyridine-3-carboxamide], the “Y220C SC150 (μM)” value is “** (** = 0.1 μM ≤ SC150 < 0.5 μM)”. With `COC(=O)NCc1nnc(-c2cc3c(N[C@@H]4CCN(C)C[C@@H]4F)cccc3n2CC(F)(F)F)s1` (racemic) [Compound 38B, (+/−)-methyl N-{[5-(4-{[(3R,4S)-3-fluoro-1-methylpiperidin-4-yl]amino}-1-(2,2,2-trifluoroethyl)-1H-indol-2-yl)-1,3,4-thiadiazol-2-yl]methyl}carbamate], the “Y220C SC150 (μM)” value is on record as “* (* = 0 μM ≤ SC150 < 0.1 μM)”. The result for `CN1CCC(Nc2cccc3c2cc(-c2noc(CNC(=O)[C@@H]4C[C@@H]4F)n2)n3CC(F)(F)F)CC1` (racemic) [Compound 147B, (1S,2S)-2-fluoro-N-[(3-{4-[(1-methylpiperidin-4-yl)amino]-1-(2,2,2-trifluoroethyl)-1H-indol-2-yl}-1,2,4-oxadiazol-5-yl)methyl]cyclopropane-1-carboxamide] reads “* (* = 0 μM ≤ SC150 < 0.1 μM)”; that for `COC[C@@H]1CCCN1c1nc(C(=O)NCc2nc(-c3cc4c(N[C@@H]5CCN(C)C[C@@H]5F)cccc4n3CC(F)(F)F)no2)cs1` [Compound 519B, N-{[3-(4-{[(3S,4R)-3-fluoro-1-methylpiperidin-4-yl]amino}-1-(2,2,2-trifluoroethyl)-1H-indol-2-yl)-1,2,4-oxadiazol-5-yl]methyl}-2-[(2S)-2-(methoxymethyl)pyrrolidin-1-yl]-1,3-thiazole-4-carboxamide], “* (* = 0 μM ≤ SC150 < 0.1 μM)”. In the case of `CN1CC[C@@H](Nc2cccc3c2cc(-c2noc(CNC(=O)c4ccn([C@H]5CC[C@@](C)(O)C5)c4)n2)n3CC(F)(F)F)[C@@H](F)C1` (stereo in doubt) [Compound 374B, Cis-N-{[3-(4-{[(3S,4R)-3-fluoro-1-methylpiperidin-4-yl]amino}-1-(2,2,2-trifluoroethyl)-1H-indol-2-yl)-1,2,4-oxadiazol-5-yl]methyl}-1-[(1R,3S)-3-hydroxy-3-methylcyclopentyl]-1H-pyrrole-3-carboxamide], the “Y220C SC150 (μM)” value was “* (* = 0 μM ≤ SC150 < 0.1 μM)”. Consider `COCC1(c2cc(C(=O)NCc3nc(-c4cc5c(N[C@@H]6CCOC[C@@H]6F)cccc5n4CC(F)(F)F)no3)cs2)CC1` [Compound 507B, N-{[3-(4-{[(3R,4R)-3-fluorooxan-4-yl]amino}-1-(2,2,2-trifluoroethyl)-1H-indol-2-yl)-1,2,4-oxadiazol-5-yl]methyl}-5-[1-(methoxymethyl)cyclopropyl]thiophene-3-carboxamide], for which the “Y220C SC150 (μM)” value was “* (* = 0 μM ≤ SC150 < 0.1 μM)”. As to `CN1CCC(Nc2cccc3c2cc(-c2nnc(CNC(=O)c4ccccn4)s2)n3CC(F)(F)F)CC1` [Compound 41B, N-[(5-{4-[(1-methylpiperidin-4-yl)amino]-1-(2,2,2-trifluoroethyl)-1H-indol-2-yl}-1,3,4-thiadiazol-2-yl)methyl]pyridine-2-carboxamide], the “Y220C SC150 (μM)” value is “** (** = 0.1 μM ≤ SC150 < 0.5 μM)”. Consider `COc1ccc(C(=O)NCc2nnc(-c3cc4c(N[C@H]5CCN(C)C[C@H]5F)cccc4n3CC(F)(F)F)o2)cc1` (racemic) [Compound 117B, (+/−)-N-{[5-(4-{[(3R,4S)-3-fluoro-1-methylpiperidin-4-yl]amino}-1-(2,2,2-trifluoroethyl)-1H-indol-2-yl)-1,3,4-oxadiazol-2-yl]methyl}-4-methoxybenzamide], for which the “Y220C SC150 (μM)” value is on record as “** (** = 0.1 μM ≤ SC150 < 0.5 μM)”. For `COCC(C)(C)c1cc(C(=O)NCc2nc(-c3cc4c(N[C@@H]5CCN(C)C[C@@H]5F)cccc4n3CC(F)(F)F)no2)cs1` [Compound 485B, N-{[3-(4-{1[(3S,4R)-3-fluoro-1-methylpiperidin-4-yl]amino}-1-(2,2,2-trifluoroethyl)-1H-indol-2-yl)-1,2,4-oxadiazol-5-yl]methyl}-5-(1-methoxy-2-methylpropan-2-yl)thiophene-3-carboxamide] the value was “* (* = 0 μM ≤ SC150 < 0.1 μM)”; for `COc1ccccc1C(=O)NCc1nnc(-c2cc3c(NC4CCN(C)CC4)cccc3n2CC(F)(F)F)s1` [Compound 66B, 2-methoxy-N-[(5-{4-[(1-methylpiperidin-4-yl)amino]-1-(2,2,2-trifluoroethyl)-1H-indol-2-yl}-1,3,4-thiadiazol-2-yl)methyl]benzamide], “* (* = 0 μM ≤ SC150 < 0.1 μM)”.

As to `CC(C)(C)N1CCC(Nc2cccc3c2cc(-c2noc(CNC(=O)c4cnn(C(C)(C)C)c4)n2)n3CC(F)(F)F)[C@@H](F)C1` (stereo in doubt) [Compound 400B, 1-tert-butyl-N-{[3-(4-{[(3S,4R)-1-tert-butyl-3-fluoropiperidin-4-yl]amino}-1-(2,2,2-trifluoroethyl)-1H-indol-2-yl)-1,2,4-oxadiazol-5-yl]methyl}-1H-pyrazole-4-carboxamide], the “Y220C SC150 (μM)” value is “* (* = 0 μM ≤ SC150 < 0.1 μM)”. The result for `CN1CC[C@H](F)[C@H](Nc2cccc3c2cc(-c2noc(CNC(=O)c4cnn(C(C)(C)C)c4)n2)n3CC(F)(F)F)C1` [Compound 408B, 1-tert-butyl-N-{[3-(4-{[(3R,4S)-4-fluoro-1-methylpiperidin-3-yl]amino}-1-(2,2,2-trifluoroethyl)-1H-indol-2-yl)-1,2,4-oxadiazol-5-yl]methyl}-1H-pyrazole-4-carboxamide] reads “* (* = 0 μM ≤ SC150 < 0.1 μM)”. With `CN1CC[C@@H](Nc2cccc3c2cc(-c2cc(CNC(=O)c4ccn(C(C)(C)C)c4)cs2)n3CC(F)(F)F)[C@@H](F)C1` [Compound 283B, 1-tert-butyl-N-{[5-(4-{[(3S,4R)-3-fluoro-1-methylpiperidin-4-yl]amino}-1-(2,2,2-trifluoroethyl)-1H-indol-2-yl)thiophen-3-yl]methyl}-1H-pyrrole-3-carboxamide], the “Y220C SC150 (μM)” value is given as “** (** = 0.1 μM ≤ SC150 < 0.5 μM)”. The result for `CCN1CC[C@@H](Nc2cccc3c2cc(-c2noc(CNC(=O)c4ccn(C5CCCC5)c4)n2)n3CC(F)(F)F)[C@@H](F)C1` [Compound 320B, 1-cyclopentyl-N-{[3-(4-{[(3S,4R)-1-ethyl-3-fluoropiperidin-4-yl]amino}-1-(2,2,2-trifluoroethyl)-1H-indol-2-yl)-1,2,4-oxadiazol-5-yl]methyl}-1H-pyrrole-3-carboxamide] reads “* (* = 0 μM ≤ SC150 < 0.1 μM)”; that for `COc1cc(S(C)(=O)=O)ccc1NCc1nnc(-c2cc3c(N[C@H]4CCN(C)C[C@H]4F)cccc3n2CC(F)(F)F)s1` [Compound 61B, N-[(3R,4S)-3-fluoro-1-methylpiperidin-4-yl]-2-(5-{[(4-methanesulfonyl-2-methoxyphenyl)amino]methyl}-1,3,4-thiadiazol-2-yl)-1-(2,2,2-trifluoroethyl)-1H-indol-4-amine], “* (* = 0 μM ≤ SC150 < 0.1 μM)”; that for `CN1CCC(Nc2cccc3c2cc(-c2nnc(CNC(=O)c4cc[nH]c4)s2)n3CC(F)(F)F)CC1` [Compound 78B, N-[(5-{4-[(1-methylpiperidin-4-yl)amino]-1-(2,2,2-trifluoroethyl)-1H-indol-2-yl}-1,3,4-thiadiazol-2-yl)methyl]-1H-pyrrole-3-carboxamide], “* (* = 0 μM ≤ SC150 < 0.1 μM)”.

For `CN1CC[C@H](Nc2cccc3c2cc(-c2nnc(CN)o2)n3CC(F)(F)F)[C@H](F)C1` (racemic) [Compound 116B, (+/−)-2-[5-(aminomethyl)-1,3,4-oxadiazol-2-yl]-N-[(3R,4S)-3-fluoro-1-methylpiperidin-4-yl]-1-(2,2,2-trifluoroethyl)-1H-indol-4-amine], the “Y220C SC150 (μM)” value was “*** (*** = 0.5 μM ≤ SC150 < 1 μM)”.

`CN1CC[C@@H](Nc2cccc3c2cc(-c2ncc(CNc4ccccc4)s2)n3CC(F)(F)F)[C@@H](F)C1` (racemic) [Compound 98B, (+/−)-N-[(3R,4S)-3-fluoro-1-methylpiperidin-4-yl]-2-{5-[(phenylamino)methyl]-1,3-thiazol-2-yl}-1-(2,2,2-trifluoroethyl)-1H-indol-4-amine]: the “Y220C SC150 (μM)” value is given as “* (* = 0 μM ≤ SC150 < 0.1 μM)”.
